Experimental findings from patent US20240350643A1, “PROTEIN DEGRADATION AGENT” (SUZHOU KINTOR PHARMACEUTICALS, INC., priority 2021, published 2024) are described below.

SMILES strings stand for the structures.

For assay [1], the target named is T1, c-Myc protein (Homo sapiens, UniProt P01106).
T1 construct: endogenous in cells; host or cells: HL60 cells
Kind of assay: Ability of compounds to degrade c-Myc protein in HL60 cells (ELISA). The note with it: HL-60, 1 μM compound, 24 h, read-out: HL60 cells Protein degradation rate (1 μM). The class given is cell-based. (In general: In an ELISA, binding on a coated surface is turned into a signal by an enzyme label.)

Assay [2] deals with HL60 cells. Kind of assay: Anti-proliferation ability of compounds on HL60 cells (CTG). Type of assay: cell-based, human. The note with it: Homo sapiens, HL-60, 72 h, 3 days, CellTiter-Glo, read-out: HL60 cells Proliferation inhibitory activity. Summed up:
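Proliferation inhibition IC50 derived from CellTiter-Glo luminescence after 3-day compound treatment of HL60 cells plated at 20000 per well, against 0.1% DMSO controls.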
A general note: In ATP-based viability assays light output follows the ATP content of the culture.

T1 sequence (P01106 whole entry): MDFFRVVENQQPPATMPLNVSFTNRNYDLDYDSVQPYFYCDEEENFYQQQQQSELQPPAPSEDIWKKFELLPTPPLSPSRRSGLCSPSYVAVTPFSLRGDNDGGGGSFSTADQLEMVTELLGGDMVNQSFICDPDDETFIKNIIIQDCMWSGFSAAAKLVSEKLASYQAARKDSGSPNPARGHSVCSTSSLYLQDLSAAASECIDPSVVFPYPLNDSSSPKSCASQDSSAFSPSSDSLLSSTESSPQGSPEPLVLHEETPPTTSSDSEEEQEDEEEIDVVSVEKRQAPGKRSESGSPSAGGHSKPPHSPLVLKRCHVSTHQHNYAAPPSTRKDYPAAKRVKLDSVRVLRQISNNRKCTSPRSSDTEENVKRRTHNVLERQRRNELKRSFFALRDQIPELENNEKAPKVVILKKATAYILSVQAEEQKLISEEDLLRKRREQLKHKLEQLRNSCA

Turning to `CN(CCc1cccc2ccccc12)Cc1ccc(CC(=O)Nc2ccc3c(c2)CN(C2CCC(=O)NC2=O)C3=O)cc1` (centres unmarked) [A205], the inhibition at 1 µM in assay [1] was 60 to 90%. In addition, in assay [2], the IC50 was found to be 0.2 ± 0.1 nM.
As to `O=C(Cn1c2ccccc2c2cccnc21)NCc1ccc(CNC(=O)c2ccc3c(c2)CN(C2CCC(=O)NC2=O)C3=O)cc1OC(F)(F)F` (centres unmarked) [A208], the inhibition at 1 µM in assay [1] is 60 to 90%. The IC50 in assay [2] was 0.5 nM.
The like results for `O=C1CCC(N2Cc3cc(C(=O)NCc4ccc(CNc5nccc(-c6cccc7ccccc67)n5)cc4)ccc3C2=O)C(=O)N1` (centres unmarked) [A220] were, in that order, 60 to 90% and 1.2 ± 0.1 nM.
Consider `O=C(Cn1c2ccccc2c2cccnc21)NCc1ccc(CNC(=O)c2ccc3c(c2)CN([C@H]2CCC(=O)NC2=O)C3=O)cc1` [A224], for which the inhibition at 1 µM in assay [1] was in the range of 60 to 90%. In assay [2], the IC50 was 1.7 ± 1.3 nM.
On the same counts, the results for `O=C(Cn1c2ccccc2c2cccnc21)NCc1ccc(CNC(=O)c2ccc3c(c2)CN([C@@H]2CCC(=O)NC2=O)C3=O)cc1` [A225] are 60 to 90% and 1.3 ± 0.2 nM.
In the case of `NCC(=O)OCN1C(=O)CCC(N2Cc3cc(C(=O)NCc4ccc(CNC(=O)Cn5c6ccccc6c6cccnc65)cc4)ccc3C2=O)C1=O` (centres unmarked) [A227], the inhibition at 1 µM in assay [1] was in the range of 30 to 60%. Moreover, the IC50 in assay [2] was determined as 0.6 ± 0.1 nM.
Take `O=C(Cn1c2ccccc2c2cccnc21)NCc1ccc(CNC(=O)c2ccc3c(c2)CN(C2CCC(=O)N(COP(=O)(O)O)C2=O)C3=O)cc1` (centres unmarked) [A228]: in assay [1], the inhibition at 1 µM lay in the range of 60 to 90%. Further, in assay [2], the IC50 came to 5 ± 0.2 nM.
